Results taken from the NIST ThermoML archive (doi:10.1021/je2009413).

Tests used:
[1] = mean ionic activity coefficient (dimensionless); mn = molality of the nth substance listed, in mol/kg; details: 298.15 K, Liquid, Isopiestic method
[2] = osmotic coefficient (dimensionless); mn = molality of the nth substance listed, in mol/kg; details: 298.15 K, Liquid, isopiestic method

CCCC[N+](CC)(CC)CCCC.[I-] [N-butyl-N,N-diethylbutan-1-aminium iodide] + O
Details | mean ionic activity coefficient, [1] | osmotic coefficient, [2]
m1 = 0.0372 | 0.7064 | 0.828
m1 = 0.0441 | 0.6798 | 0.813
m1 = 0.0491 | 0.6621 | 0.805
m1 = 0.0634 | 0.6174 | 0.782
m1 = 0.0706 | 0.5976 | 0.772
m1 = 0.0749 | 0.5865 | 0.768
m1 = 0.0839 | 0.5647 | 0.756
m1 = 0.0992 | 0.5317 | 0.738
m1 = 0.1069 | 0.5166 | 0.731
m1 = 0.1133 | 0.5048 | 0.723
m1 = 0.1221 | 0.4896 | 0.716
m1 = 0.1938 | 0.3939 | 0.654
m1 = 0.1969 | 0.3912 | 0.649
m1 = 0.2338 | 0.3566 | 0.625
m1 = 0.2705 | 0.3248 | 0.61
m1 = 0.2758 | 0.3213 | 0.605
m1 = 0.3292 | 0.2868 | 0.581
m1 = 0.3751 | 0.2634 | 0.559
m1 = 0.4189 | 0.2415 | 0.546
m1 = 0.4343 | 0.2351 | 0.541
m1 = 0.4687 | 0.2213 | 0.532
m1 = 0.5317 | 0.2037 | 0.508
m1 = 0.58 | 0.1904 | 0.497
m1 = 0.6463 | 0.1748 | 0.481
m1 = 0.7082 | 0.166 | 0.463
m1 = 0.758 | 0.1556 | 0.456
m1 = 0.7808 | 0.1521 | 0.451
m1 = 0.9199 | 0.1348 | 0.426
m1 = 0.9899 | 0.1266 | 0.416
m1 = 1.1 | 0.1171 | 0.401
m1 = 1.178 | 0.1131 | 0.389
m1 = 1.324 | 0.1042 | 0.375
m1 = 1.426 | 0.0988 | 0.371
m1 = 1.548 | 0.0944 | 0.366
m1 = 1.66 | 0.0909 | 0.362
m1 = 1.76 | 0.0885 | 0.363
m1 = 1.926 | 0.0852 | 0.366
m1 = 2.042 | 0.0821 | 0.377
m1 = 2.078 | 0.0809 | 0.383
m1 = 2.108 | 0.0807 | 0.384
m1 = 2.136 | 0.0802 | 0.386
m1 = 2.179 | 0.0789 | 0.4
m1 = 2.218 | 0.0782 | 0.405
m1 = 2.389 | 0.0748 | 0.434

CCC(C)[N+](CC)(CC)CC.[I-] (stereo unspecified) [N,N,N-triethyl-2-butanaminium iodide] + O
Details | mean ionic activity coefficient, [1] | osmotic coefficient, [2]
m1 = 0.0355 | 0.7342 | 0.868
m1 = 0.0419 | 0.7111 | 0.857
m1 = 0.0466 | 0.6955 | 0.849
m1 = 0.0596 | 0.6571 | 0.833
m1 = 0.0659 | 0.6405 | 0.827
m1 = 0.0701 | 0.6301 | 0.82
m1 = 0.078 | 0.6116 | 0.814
m1 = 0.0914 | 0.5833 | 0.801
m1 = 0.0985 | 0.5696 | 0.794
m1 = 0.1038 | 0.5599 | 0.79
m1 = 0.1115 | 0.5465 | 0.784
m1 = 0.1743 | 0.4605 | 0.728
m1 = 0.1756 | 0.459 | 0.728
m1 = 0.2078 | 0.4262 | 0.704
m1 = 0.2438 | 0.3955 | 0.676
m1 = 0.248 | 0.3922 | 0.673
m1 = 0.2939 | 0.3602 | 0.651
m1 = 0.338 | 0.3347 | 0.621
m1 = 0.3717 | 0.3178 | 0.616
m1 = 0.3901 | 0.3094 | 0.602
m1 = 0.431 | 0.2924 | 0.578
m1 = 0.4744 | 0.2766 | 0.57
m1 = 0.5204 | 0.2619 | 0.554
m1 = 0.5785 | 0.2458 | 0.538
m1 = 0.624 | 0.2347 | 0.525
m1 = 0.665 | 0.2257 | 0.52
m1 = 0.6928 | 0.22 | 0.508
m1 = 0.8 | 0.2011 | 0.49
m1 = 0.847 | 0.194 | 0.486
m1 = 0.9185 | 0.1842 | 0.48
m1 = 0.978 | 0.177 | 0.468
m1 = 1.091 | 0.1651 | 0.456
m1 = 1.19 | 0.1562 | 0.445
m1 = 1.306 | 0.1471 | 0.433
m1 = 1.407 | 0.1402 | 0.427
m1 = 1.545 | 0.132 | 0.413
m1 = 1.715 | 0.1234 | 0.411
m1 = 1.891 | 0.1159 | 0.407
m1 = 1.928 | 0.1144 | 0.412
m1 = 1.988 | 0.1122 | 0.407
m1 = 2.019 | 0.111 | 0.408
m1 = 2.09 | 0.1086 | 0.417
m1 = 2.172 | 0.1059 | 0.413
m1 = 2.413 | 0.0987 | 0.43
